The target in one series is T1, M α1-antitrypsin (Homo sapiens, UniProt P01009).
T1 construct: Alpha1-antitrypsin was purified from the plasma of ZZ and MM α1-antitrypsin homozygotes; from tissue; host or cells: plasma of MM homozygotes
The experiment in a line: Biochemical competition binding assay (TR-FRET), M α1-antitrypsin. The settings on record: selectivity Z over M. Here is the method: (§1) Alpha1-antitrypsin was purified from the plasma of ZZ and MM α1-antitrypsin homozygotes as described in Lomas et al., Biochemistry. 1993; 32:500-8. Recombinant Cys232Ser α1-antitrypsin was expressed and purified as detailed in Irving et al. Methods Enzymol. 2011; 501:421-66 and Haq et al. Biosci Rep. 2013; 33(3):e00046.
(§2) A fluorescent derivative of compound 1 was prepared by derivatizing compound 1 at its ring nitrogen atom with an Alexa Fluor 488 label via a short organic linker group.
(§3) A serial dilution of test compounds in DMSO was diluted 25-fold with assay buffer, and 2.5 μl of this intermediate dilution transferred to a black, low-volume 384-well microtitre plate (Greiner BioOne; product no. 784076). […]
(§4) Plates were sealed and incubated overnight at room temperature, or for 3 days at 4° C. then 6 hours at room temperature. […] The TR-FRET signal was read on an Envision plate reader, by excitation of Terbium at 337 nm and detection of emission at 520 nm and 495 nm.
(§5) Dissociation constants (KD) for the affinity of compounds to Z-a1AT or M-a1AT protein were derived from the pIC50 values according to the Cheng-Prusoff equation, taking into account the concentration of fluorescent ligand used in relation to its affinity as determined in independent Fluorescence Polarisation and TR-FRET experiments: KD(compound)=10^−pIC50(compound)/([…]. Compound Association Experiments

The next series has as its system α1-antitrypsin. The experiment in a line: Thermal shift assay (SYPRO Orange). The format is biochemical. The note with it: 50 µM Compound 1, SYPRO Orange, versus absence. Here is the method: The native state stability of serpins on addition of compounds was investigated by thermal denaturation in the presence of a 5× concentration of SYPRO Orange dye solution (Life Technologies). A final protein concentration of 0.1 mg/ml and 50 uM compound suspended in PBS was used (Nettleship et al. Methods Mol Biol. 2008; 426:299-318). The samples were heated from 25° C.-95° C. at a rate of 1° C./min in three separate experiments on an Eppendorph Mastercycler Realplex4 quantitative real-time PCR instrument, and the fluorescence in the 605±15 nm bin recorded. The midpoint of denaturation (Tm) is the temperature at which the first derivative of fluorescence intensity against temperature reaches a maximum.
Polymerisation of α1-antitrypsin occurs from a transient intermediate state known as M*, that is readily populated by the Z variant. One of the hallmarks of M* is its recognition by environment-sensitive fluorescent reporter dyes. Thermal shift assays that make use of the dye SYPRO Orange report the stability of the protein native state against heat-induced unfolding. […] Native state stability can also be probed by equilibrium unfolding using chemical denaturants, where a peak in bis-ANS fluorescence corresponds with a maximally populated unfolding intermediate.

For a further series, the target named is T2, neuroserpin (Homo sapiens, UniProt Q99574).
T2 sequence (Q99574 17-410): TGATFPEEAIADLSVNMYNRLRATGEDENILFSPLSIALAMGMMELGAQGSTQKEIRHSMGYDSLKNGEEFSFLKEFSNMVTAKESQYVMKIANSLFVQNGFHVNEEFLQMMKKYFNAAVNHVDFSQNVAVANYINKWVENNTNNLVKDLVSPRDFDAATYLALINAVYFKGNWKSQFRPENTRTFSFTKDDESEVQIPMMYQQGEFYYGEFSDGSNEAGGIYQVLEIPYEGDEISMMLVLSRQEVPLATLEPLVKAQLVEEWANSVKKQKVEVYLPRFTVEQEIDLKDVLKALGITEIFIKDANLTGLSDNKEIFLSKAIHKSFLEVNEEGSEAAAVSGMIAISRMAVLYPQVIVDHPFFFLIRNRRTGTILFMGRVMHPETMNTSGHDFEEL
The experiment in a line: Serpin inhibitory activity, neuroserpin. The note with it: incubation with 50 μM. The format is biochemical. The source says: (§6) In order to investigate suitability of Compound 1 for progression into in vivo studies and the potential for taking forward as a clinical candidate for testing in human, Compound 1 was profiled against a panel of in vitro assays for off-targets considered predictive of potential safety liabilities. […] The measured potency of these marginal activities were at least 10-fold below the cellular activity of Compound 1 at blocking Z α1-antitrypsin polymerisation (pEC50 6.3). Loss of inhibitory activity represents a means by which possible off-target engagement with other serpins can be evaluated. However in contrast to α1-antitrypsin upon incubation with 50 μM Compound 1 the inhibitory activity of the homologues antithrombin, neuroserpin and antichymotrypsin was not affected.

The target in a further series is T3, antichymotrypsin (Homo sapiens, UniProt P01011).
T3 sequence (P01011 24-423): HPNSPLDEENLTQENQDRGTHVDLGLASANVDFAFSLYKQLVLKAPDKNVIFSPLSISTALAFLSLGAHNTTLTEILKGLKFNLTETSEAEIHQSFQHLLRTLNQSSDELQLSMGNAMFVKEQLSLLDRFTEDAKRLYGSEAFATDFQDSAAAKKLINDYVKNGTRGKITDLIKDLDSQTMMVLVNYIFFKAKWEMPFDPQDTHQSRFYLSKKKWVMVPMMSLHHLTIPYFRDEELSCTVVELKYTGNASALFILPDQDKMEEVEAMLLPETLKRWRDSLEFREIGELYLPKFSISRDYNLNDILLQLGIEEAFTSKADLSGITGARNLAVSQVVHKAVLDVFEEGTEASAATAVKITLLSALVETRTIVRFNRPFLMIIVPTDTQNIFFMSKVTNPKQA
Briefly: Serpin inhibitory activity, antichymotrypsin. The settings on record: incubation with 50 μM. The format is biochemical.
Source text: as §6

Another series has as its target human serum albumin (Homo sapiens, UniProt P02768). The experiment in a line: Binding to human serum albumin. The class given is in vitro ADME.
Another series in a line: Solubility in FaSSIF. The format is physicochemical.
The next series concerns the target Z α1-antitrypsin (Homo sapiens, UniProt P01009, E366K/V237A). The experiment in a line: Biochemical competition binding assay (TR-FRET), Z α1-antitrypsin. On the set-up: a random insertion of the human Z α1-antitrypsin gene; from tissue; host or cells: liver and plasma of Z α1-antitrypsin transgenic mice (human Z transgene). The note with it: competition binding with fluorescently labelled derivative; read-out: affinity (KD) to Z α1-antitrypsin. How it is done: as §1, §2, §3, §4, §5
For orientation: Time-resolved FRET reads energy transfer from a long-lived donor to a nearby acceptor.

The structures appear in SMILES notation.

In general, Kd refers to the equilibrium constant for the complex coming apart.

Chain of Z α1-antitrypsin (P01009 25-418 V237A/E366K): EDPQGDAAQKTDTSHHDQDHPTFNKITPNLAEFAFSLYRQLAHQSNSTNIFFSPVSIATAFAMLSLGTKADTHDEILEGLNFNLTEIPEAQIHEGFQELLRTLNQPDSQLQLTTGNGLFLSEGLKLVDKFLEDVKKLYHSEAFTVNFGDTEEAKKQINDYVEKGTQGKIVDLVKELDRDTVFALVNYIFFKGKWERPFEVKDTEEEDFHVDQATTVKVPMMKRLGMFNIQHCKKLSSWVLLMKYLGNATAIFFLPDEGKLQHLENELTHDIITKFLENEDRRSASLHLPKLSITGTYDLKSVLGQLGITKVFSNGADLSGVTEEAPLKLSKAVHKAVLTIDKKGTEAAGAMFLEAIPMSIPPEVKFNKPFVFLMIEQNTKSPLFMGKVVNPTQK
Chain of human serum albumin (P02768 25-609): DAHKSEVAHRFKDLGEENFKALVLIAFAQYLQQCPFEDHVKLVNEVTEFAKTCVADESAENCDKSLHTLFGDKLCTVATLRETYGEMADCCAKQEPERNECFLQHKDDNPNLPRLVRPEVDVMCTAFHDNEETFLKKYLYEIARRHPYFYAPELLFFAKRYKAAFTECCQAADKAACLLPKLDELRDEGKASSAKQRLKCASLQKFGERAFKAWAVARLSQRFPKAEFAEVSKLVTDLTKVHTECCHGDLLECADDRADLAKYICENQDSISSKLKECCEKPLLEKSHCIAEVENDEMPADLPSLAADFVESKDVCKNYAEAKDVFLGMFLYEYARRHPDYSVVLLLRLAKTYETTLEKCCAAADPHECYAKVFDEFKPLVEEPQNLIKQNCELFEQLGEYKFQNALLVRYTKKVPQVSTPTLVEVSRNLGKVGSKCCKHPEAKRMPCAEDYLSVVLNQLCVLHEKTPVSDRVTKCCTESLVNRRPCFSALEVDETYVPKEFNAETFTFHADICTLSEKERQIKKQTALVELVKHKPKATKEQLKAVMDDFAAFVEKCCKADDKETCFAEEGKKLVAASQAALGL
T1 sequence (P01009 25-418): as the sequence (P01009 25-418 V237A/E366K) above, with A213V, K342E counted along it

On to `CCC[C@@H](NC(=O)c1cccc2c1CC(=O)N2)[C@@H](O)c1cccc(F)c1C` [Compound 1, N-[(1S,2R)-1-(3-fluoro-2-methylphenyl)-1-hydroxypentan-2-yl]-2-oxo-2,3-dihydro-1H-indole-4-carboxamide], for which, on M α1-antitrypsin, the “fold lower affinity for plasma-purified wild-type M α1-antitrypsin” value is reported as “at least 50 fold”. Besides, the transition midpoint temperature result in the series with α1-antitrypsin is on record as “marked increase”. The “inhibitory activity of neuroserpin” value on neuroserpin is given as “not affected”. Further, the “inhibitory activity of antichymotrypsin” value at antichymotrypsin is “not affected”. Further, the “binding to human serum albumin” value at human serum albumin is reported as 84.2%. In the series “Solubility in FaSSIF”, the “solubility of amorphous drug substance in FaSSIF” value is on record as “good solubility”. Further, the Kd on Z α1-antitrypsin was determined as 1.5 nM.

The record behind these values is US11919856B2, “Compounds” (UCL BUSINESS LTD, priority 2018, dated 2024).
